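Dose response: 5 concentrations. Exposure: 48 h. Format: 96-well plates. Endpoint: linear interpolation; highest concentration if not reached. The concentration for 50% growth inhibition is given as GI50. TGI marks complete inhibition of growth.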
What was measured:
Assay in all cases: inhibition of tumour cell growth, NCI panel, 48 h
HS 578T breast = system: HS 578T breast
SNB-19 CNS = system: SNB-19 CNS
OVCAR-4 ovarian = system: OVCAR-4 ovarian
T-47D breast = system: T-47D breast
EKVX NSCLC = system: EKVX NSCLC
MALME-3M melanoma = system: MALME-3M melanoma
MDA-MB-231 breast = system: MDA-MB-231 breast
SF-539 CNS = system: SF-539 CNS
HCT-15 colon = system: HCT-15 colon
NCI-H226 lung = system: NCI-H226 lung
COLO 205 colon = system: COLO 205 colon
SK-MEL-5 melanoma = system: SK-MEL-5 melanoma
LOX IMVI melanoma = system: LOX IMVI melanoma
IGROV1 ovarian = system: IGROV1 ovarian
A549 NSCLC = system: A549 NSCLC
A498 renal = system: A498 renal
TK-10 renal = system: TK-10 renal
OVCAR-8 ovarian = system: OVCAR-8 ovarian
SK-OV-3 ovarian = system: SK-OV-3 ovarian
CAKI-1 renal = system: CAKI-1 renal
HCT-116 colon = system: HCT-116 colon
U251 CNS = system: U251 CNS
NCI/ADR-RES ovarian = system: NCI/ADR-RES ovarian
ACHN renal = system: ACHN renal
SK-MEL-28 melanoma = system: SK-MEL-28 melanoma
HOP-62 NSCLC = system: HOP-62 NSCLC
NCI-H522 lung = system: NCI-H522 lung
SW-620 colon = system: SW-620 colon
NCI-H460 lung = system: NCI-H460 lung
UACC-62 melanoma = system: UACC-62 melanoma
OVCAR-3 ovarian = system: OVCAR-3 ovarian
UO-31 renal = system: UO-31 renal
RXF 393 renal = system: RXF 393 renal
786-0 renal = system: 786-0 renal
SK-MEL-2 melanoma = system: SK-MEL-2 melanoma
MCF7 breast = system: MCF7 breast
SF-295 CNS = system: SF-295 CNS
M14 melanoma = system: M14 melanoma
DU-145 prostate = system: DU-145 prostate
MDA-MB-435 = system: MDA-MB-435
HT29 colon = system: HT29 colon
KM12 colon = system: KM12 colon
SNB-75 CNS = system: SNB-75 CNS
NCI-H23 lung = system: NCI-H23 lung
BT-549 breast = system: BT-549 breast
HCC-2998 colon = system: HCC-2998 colon
SF-268 CNS = system: SF-268 CNS
OVCAR-5 ovarian = system: OVCAR-5 ovarian
SN12C renal = system: SN12C renal

NCCCCC1NC(=O)C(CC(=O)O)NC(=O)CNC(=O)C(CCCN=C(N)N)NC(=O)C(N)CSSCC(C(=O)O)NC(=O)C(CC(=O)O)NC(=O)C2CCCN2C(=O)CNC1=O (stereo not drawn)
GI50 (HS 578T breast): > 100 µM
TGI (HS 578T breast): > 100 µM
GI50 (SNB-19 CNS): > 100 µM
TGI (SNB-19 CNS): > 100 µM
GI50 (OVCAR-4 ovarian): > 100 µM
TGI (OVCAR-4 ovarian): > 100 µM
GI50 (T-47D breast): > 100 µM
TGI (T-47D breast): > 100 µM
GI50 (EKVX NSCLC): > 100 µM
TGI (EKVX NSCLC): > 100 µM
GI50 (MALME-3M melanoma): > 100 µM
TGI (MALME-3M melanoma): > 100 µM
GI50 (MDA-MB-231 breast): > 100 µM
TGI (MDA-MB-231 breast): > 100 µM
GI50 (SF-539 CNS): > 100 µM
TGI (SF-539 CNS): > 100 µM
GI50 (HCT-15 colon): > 100 µM
TGI (HCT-15 colon): > 100 µM
GI50 (NCI-H226 lung): > 100 µM
TGI (NCI-H226 lung): > 100 µM
GI50 (COLO 205 colon): > 100 µM
TGI (COLO 205 colon): > 100 µM
GI50 (SK-MEL-5 melanoma): > 100 µM
TGI (SK-MEL-5 melanoma): > 100 µM
GI50 (LOX IMVI melanoma): > 100 µM
TGI (LOX IMVI melanoma): > 100 µM
GI50 (IGROV1 ovarian): > 100 µM
TGI (IGROV1 ovarian): > 100 µM
GI50 (A549 NSCLC): > 100 µM
TGI (A549 NSCLC): > 100 µM
GI50 (A498 renal): > 100 µM
TGI (A498 renal): > 100 µM
GI50 (TK-10 renal): > 100 µM
TGI (TK-10 renal): > 100 µM
GI50 (OVCAR-8 ovarian): > 100 µM
TGI (OVCAR-8 ovarian): > 100 µM
GI50 (SK-OV-3 ovarian): > 100 µM
TGI (SK-OV-3 ovarian): > 100 µM
GI50 (CAKI-1 renal): 65.4 µM
TGI (CAKI-1 renal): > 100 µM
GI50 (HCT-116 colon): > 100 µM
TGI (HCT-116 colon): > 100 µM
GI50 (U251 CNS): > 100 µM
TGI (U251 CNS): > 100 µM
GI50 (NCI/ADR-RES ovarian): > 100 µM
TGI (NCI/ADR-RES ovarian): > 100 µM
GI50 (ACHN renal): > 100 µM
TGI (ACHN renal): > 100 µM
GI50 (SK-MEL-28 melanoma): > 100 µM
TGI (SK-MEL-28 melanoma): > 100 µM
GI50 (HOP-62 NSCLC): > 100 µM
TGI (HOP-62 NSCLC): > 100 µM
GI50 (NCI-H522 lung): > 100 µM
TGI (NCI-H522 lung): > 100 µM
GI50 (SW-620 colon): > 100 µM
TGI (SW-620 colon): > 100 µM
GI50 (NCI-H460 lung): > 100 µM
TGI (NCI-H460 lung): > 100 µM
GI50 (UACC-62 melanoma): > 100 µM
TGI (UACC-62 melanoma): > 100 µM
GI50 (OVCAR-3 ovarian): > 100 µM
TGI (OVCAR-3 ovarian): > 100 µM
GI50 (UO-31 renal): > 100 µM
TGI (UO-31 renal): > 100 µM
GI50 (RXF 393 renal): > 100 µM
TGI (RXF 393 renal): > 100 µM
GI50 (786-0 renal): > 100 µM
TGI (786-0 renal): > 100 µM
GI50 (SK-MEL-2 melanoma): > 100 µM
TGI (SK-MEL-2 melanoma): > 100 µM
GI50 (MCF7 breast): > 100 µM
TGI (MCF7 breast): > 100 µM
GI50 (SF-295 CNS): > 100 µM
TGI (SF-295 CNS): > 100 µM
GI50 (M14 melanoma): > 100 µM
TGI (M14 melanoma): > 100 µM
GI50 (DU-145 prostate): > 100 µM
TGI (DU-145 prostate): > 100 µM
GI50 (MDA-MB-435): > 100 µM
TGI (MDA-MB-435): > 100 µM
GI50 (HT29 colon): > 100 µM
TGI (HT29 colon): > 100 µM
GI50 (KM12 colon): > 100 µM
TGI (KM12 colon): > 100 µM
GI50 (SNB-75 CNS): > 100 µM
TGI (SNB-75 CNS): > 100 µM
GI50 (NCI-H23 lung): > 100 µM
TGI (NCI-H23 lung): > 100 µM
GI50 (BT-549 breast): > 100 µM
TGI (BT-549 breast): > 100 µM
GI50 (HCC-2998 colon): > 100 µM
TGI (HCC-2998 colon): > 100 µM
GI50 (SF-268 CNS): > 100 µM
TGI (SF-268 CNS): > 100 µM
GI50 (OVCAR-5 ovarian): > 100 µM
TGI (OVCAR-5 ovarian): > 100 µM
GI50 (SN12C renal): > 100 µM
TGI (SN12C renal): > 100 µM
